The source made the active and inactive calls. No rule for the calls is given here.
Target: Casein kinase II subunit alpha (Homo sapiens, UniProt P68400)
Type: functional

Sequence of Casein kinase II subunit alpha (P68400 whole entry): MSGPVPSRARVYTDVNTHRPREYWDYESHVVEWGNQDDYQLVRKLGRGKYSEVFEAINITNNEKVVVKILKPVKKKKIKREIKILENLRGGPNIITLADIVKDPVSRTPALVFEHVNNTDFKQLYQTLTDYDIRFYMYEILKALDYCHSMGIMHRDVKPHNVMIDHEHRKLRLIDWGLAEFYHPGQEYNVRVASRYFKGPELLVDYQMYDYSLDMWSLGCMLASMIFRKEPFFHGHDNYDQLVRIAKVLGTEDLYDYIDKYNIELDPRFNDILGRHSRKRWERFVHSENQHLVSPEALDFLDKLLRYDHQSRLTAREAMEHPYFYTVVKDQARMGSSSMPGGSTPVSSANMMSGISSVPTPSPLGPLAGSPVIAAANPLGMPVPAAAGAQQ

`CS(=O)(=O)N(Cc1ccc2[nH]c(=O)c3cccn3c2c1)C1CC1` was tested, and the Ki was 0.0158 µM (active).

— ChEMBL document CHEMBL1201862, “PubChem BioAssay data set” (2004)
